Experiments:
iNOS = target: T1, iNOS (Mus musculus, UniProt P29477); assay: NO production measured as nitrite by infected C57epi.1 epithelial cells with iNOS inhibitors; format: cell-based, murine
T1 construct: C57epi.1 is a cloned oviduct epithelial cell line derived from a C57BL/6 mouse; endogenous in cells; host or cells: C57epi.1 mouse (C57BL/6) oviduct epithelial cell line, IFN-gamma pretreated and infected with C. muridarum, with or without mouse CD4 T cell clones
Procedure: Referring now to FIG. 19A, C57 epi.1 epithelial cells, untreated (hatched bars) or pretreated with IFN-γ (10 ηg/ml×14 hours) in the absence (black bars) or presence of iNOS inhibitors MLA (gray bars) or NIL (light gray bars),—were infected with C. muridarum (3 IFU/cell). Four hours later, the inocula were removed and monolayers cocilted with and with CD4 T-cell clones uvmo-1, -2, and -3 for an additional 32 hours. Supernatants were collected at 36 hour post infection, 32 hour post T cell coculture, and analyzed for NO production measured as nitrite. […] Also, MLA and NIL were effective inhibitors of NO production, as MLA blocked>90% of IFN-γ-induced NO; NIL blocked ˜60%.
Still referring to FIG. 19A, the iNOS inhibitor MLA blocks infected epithelial nitrite production to the background level of 2 uM even in the presence of exogenous interferon gamma and CD4 T cell clones uvmo-1,-2,-3. Inhibition of iNOS activity induced by interferon gamma, and interferon gamma plus CD4 T cell clones uvmo-1,-2,-3, in infected C57epi.1 murine epithelial cells using the iNOS inhibitors N^G-Monomethyl-L-arginine (MLA) and L-N^6-(1-Iminoethyl)lysine (NIL). iNOS activity was measured as nitrite in 24 h culture supernatants. […] 24 h supernatants from uninfected C57epi.1 murine epithelial cells have nitrite levels>0<1.5 uM.

C. muridarum = assay: Control of C. muridarum replication in C57epi.1 epithelial cells (IFU titered on McCoy monolayers); format: cell-based, Chlamydia muridarum
Procedure: To test whether the CD4 clones could control the Chlamydia replication in vitro, C57epi.1 monolayers in 48 well plates were untreated, or treated with IFN-γ (10 ηg/ml) for 14 h prior to infection or at the time of infection with 3 IFU of C. muridarum per cell. After addition of C. muridarum the plates were spun at 1200 rpm (300 g) for 30 minutes. Four hours after infection the inoculum was removed CD4 T cell clones were added in T cell media. 36 h post-infection, wells were scraped, harvested, and stored at −80° C. until C. muridarum titers determined on McCoy monolayers as previously described (Johnson, R. M., 2004). Recombinant murine IFN-γ at all concentrations tested (up to 1000 ρg/ml) had no effect on C. muridarum titrations done on the McCoy monolayers; maximum IFN-γ carryover in dilutions used for quantifying C. muridarum was <50 ρg/ml.
The panel of CD4 T cell clones was tested to determine the ability of specific clones to control C. muridarum replication in C57epi.1 epithelial cells (FIG. 2). Monolayers of C57epi.1 cells in 48 well plates (˜200,000 epithelial cells per well) were untreated or treated with IFN-γ, either 14 h prior to infection or at the time of infection, then infected with C. muridarum. Four hours post-infection the inoculating media was removed and replaced with T cell media containing CD4 T cell clones; 150, 000 T cells were added per well for an effector-to-target ratio of ˜0.75:1. 32 h later the wells were harvested with additional SPG buffer and recovered C. muridarum titered on McCoy monolayers to score replication. […] IFUs recovered from experimental wells were compared with identically treated (untreated or IFN-γ treated) parallel control wells (no T cells) to calculate % control replication. This normalization controls for the difference in C. muridarum replication in the untreated vs. IFN-γ treated C57epi.1 cells.
Referring now to FIG. 12A, the modest inhibitory effect of IFN-γ was reversed by blocking NO production with either MLA or NIL. […] According to FIG. 12B, C57.1epi cells were untreated (hatched bar) or pretreated with IFN-γ (10 ηg/ml×14 hours) in absence (black bar) or presence of MLA (gray bar) or NIL (light gray bar), and then infected with C. muridarum (3 IFU/cell). Wells were harvested at 36 hours postinfection and C. muridarum (IFU) quantified on McCoy monolayers. Comparisons were made to the infected (hatched bar).
Referring now to FIG. 19B, C. muridarum replication in epithelial cells, by an iNOS-independent mechanism, is controlled by IFN-γ-independent CD4 T cell clones. […] Wells were harvested 36 hours post infection and C. muridarum quantified on McCoy monolayers. […]

Molecule	block of IFN-γ-induced NO (iNOS; infected C57epi.1 cells, nitrite in supernatants) [%]	effect on the modest inhibitory effect of IFN-γ on C. muridarum replication (C. muridarum; C57epi.1 pretreated with IFN-γ, no T cells)	induction of NO production in C57epi.1 epithelial cells (iNOS; IFN-γ 10 ηg/ml × 14 hours, infected, p<0.0001)	C. muridarum replication in control wells (no T cells) (C. muridarum; C57epi.1 pretreated with IFN-γ 14 h prior to infection, pooled means from two experiments)	C. muridarum replication in control wells (no T cells) (C. muridarum; IFN-γ added at the time of infection)	effect on C. muridarum titrations done on McCoy monolayers (C. muridarum; all concentrations tested (up to 1000 ρg/ml))
CC(=N)NCCCC[C@H](N)C(=O)O.Cl [NIL, L-N^6-(1-iminoethyl)lysine hydrocholoride]	~60	reversed	–	–	–	–
IFN-γ: Recombinant murine IFN-γ (R&D Systems)	–	–	roughly 6 fold	4±2×10^6 IFU/well	5±1×10^6 IFU/well	no effect

— patent publication US9185889B2, “CD4 T-cells and CD8zeta cells involved in mammalian host response to epithelial cell infections and uses thereof” (Indiana University Research and Technology Corporation, priority 2010, dated 2015)
